From patent US9861116B2, “Pet food compositions for inducing a satiety response” (Hill's Pet Nutrition, Inc., priority 2010, dated 2018)

Legend:
NPY = experiment: Affymetrix feline GeneChip gene expression analysis, NPY; type: cell-based; conditions: in two cell lines tested, amount tested 0.003 mg/mL, 0.03 mg/mL, treatment intensity/control intensity
Experimental: (§1) Gene expression was analyzed using proprietary feline GeneChip® Arrays prepared by Affymetrix, Inc., Santa Clara, Calif. 95051. Total RNA is reverse transcribed into cDNA. The cDNA is used to generate cRNA which is fragmented and used as probes for GeneChip hybridization. The gene chip is washed and the hybridization signal is measured with an Affymetrix laser scanner. The hybridization data is then validated and normalized for further analysis.
(§2) Materials: Affymetrix provided most of the reagents and kit. Other reagents listed in the Affymetrix Manual but not supplied in the kit were obtained separately. Refer to GeneChip Expression Analysis Technical Manual (701021 Rev.4) for the details.
(§3) Equipment. […]
(§4) Affymetrix gene chips are used to determine the effect of various test substances or ingredients on gene expression in four feline cell lines and appropriate controls. […] Gene expression was measured for the treatment cell lines and controls. The gene expression data was determined to be either “up” or “down”-regulated for any given treatment. The decision on whether a gene is “up” or “down” is based on the fold change, which is calculated as treatment intensity/control intensity for each individual probe.

LEPR = experiment: Affymetrix feline GeneChip gene expression analysis, LEPR; type: cell-based; conditions: in all cell lines tested (CCL-150, CCL-176, CRL-2032, CCL-94); amount tested 0.005 mg/mL, 0.05 mg/mL; treatment intensity/control intensity
Experimental: as §1, §2, §3, §4

SMILES	Fold Change (gene expression, NPY) (NPY)	Fold Change (gene expression, LEPR) (LEPR)
CC1=C(/C=C/C(C)=C/C=C/C(C)=C/C=C/C=C(C)/C=C/C=C(C)/C=C/C2=C(C)CCCC2(C)C)C(C)(C)CCC1 [Beta-Carotene]	−1.75 (in two cell	–
Oc1ccc(C=Cc2cc(O)cc(O)c2)cc1 [Resveratrol]	–	1.96 (in all cell lines
